Measured values reported in patent publication US20260001910A1, “PEPTIDES AND USES THEREOF” (PreveCeutical Medical Inc., priority 2021, published 2026).
Like-named read-outs stand apart in the source and are kept apart here.

Legend:
[1] = Excerpt: (§1) The MTT (3-[4.5-dimethylthiazol-2-yl]-2,5=diphenyl tetrazolium bromide) assay is based on a process undertaken by living cells, involving the conversion of MTT into formazan crystals. This assay is used routinely to measure the in vitro cytotoxic effects of drugs on cell lines or primary patient cells (Van Meerloo et al., 2011).
(§2) The glioblastoma multiforme (GBM) cell lines used were U87 and U251 cells and patient derived cells grown as oncospheres (081024 cells). Human adherent GBM cell lines U87 and U251 were cultured in RPMI medium (Life Technologies Melbourne Australia) supplemented with 5% v/v FBS, 100 U/mL penicillin and 100 μg/mL streptomycin. 081024 cells were cultured in NeuroCult™ NS-A Proliferation medium with 0.2% (v/v) hepain, 20 ng/mL EGF and 10 ng/ml FGF.
(§3) 8×10^3 U87 and 7×10^3 U251 cells per well were seeded in 96 well plates in 200 μL serum-containing RPMI medium and incubated at 37° C. with 5% CO2 for 24 hours. After one wash with serum-free medium, 100 μL serum-free medium with different concentration of peptide SEQ ID NO:1 was added to each well. After 48 hours incubation, 10 μL of 0.5 mg/mL MTT was added and incubated for 2 hours at 37° C. Formazan crystals were dissolved by 200 μL/well dimethyl sulfoxide (DMSO) and shaking for 15 minutes. The UV absorbance was read with an iMark™ microplate absorbance reader at 595 nm (Bio-Rad Laboratories). Background absorbance was subtracted and results expressed as the % viability of control (untreated cells).

[2] = remark: listed apart in the source
Excerpt: as §1, §2, §3

[3] = tested on: U87, U251 and 081024 cells; conditions: MTT, all three GBM cell lines
Excerpt: as §1, §2, §3

recombinant MMP-2 = molecular target: T1, recombinant MMP-2 (Homo sapiens, UniProt P08253); assay: MMP-2 Inhibitor Screening Assay Kit (colorimetric); assay type: biochemical
T1 construct: purchased ab139446
Procedure: MMP-2 is an important target for inhibitor screening due to its involvement in cancer growth, angiogenesis, and metastasis. The MMP-2 screening assay was carried out with a commercially available MMP-2 Inhibitor Screening Assay Kit (Colorimetric, Catalog: ab139446) based on the manufacturers protocol. This assay is based on quantification of recombinant MMP-2 activity using a colorimetric assay (MMP-2 degrades a chromogenic substrate). The assay provides NNGH (N-isobutyl-N-(4-methoxyphenylsulfonyl) glycyl hydroxamic acid), a small molecule inhibitor, as a positive control (NNGH). […] Each determination was run in duplicate.
Briefly, MMP Substrate and MMP Inhibitor were warmed to room temperature to thaw DMSO. MMP Inhibitor (NNGH), MMP-2 substrate and MMP-2 enzyme were diluted with assay buffer to required concentration. 20 μL of MMP-2 enzyme and MMP-2 inhibitor (peptides, Chlorotoxin and NNGH) was added, then 50 μL of assay buffer was added and the reaction mixture incubated at 37° C. for 1 h. After incubation, 10 μL of MMP Substrate was added to start reaction. The reactions were continuously read at 412 nm in a microplate reader. Data was recorded at 1 min. time intervals for 10 to 20 min. The data as was plotted as optical density (OD) versus time for each sample. The reaction velocity (V) was obtained in OD/min: determine the slope of a line fit to the linear portion of the data plot using an appropriate routine. Then using the equation above the inhibitor % activity remaining was calculated. The control was without inhibitor.

T1 sequence (P08253 110-446 limits assumed): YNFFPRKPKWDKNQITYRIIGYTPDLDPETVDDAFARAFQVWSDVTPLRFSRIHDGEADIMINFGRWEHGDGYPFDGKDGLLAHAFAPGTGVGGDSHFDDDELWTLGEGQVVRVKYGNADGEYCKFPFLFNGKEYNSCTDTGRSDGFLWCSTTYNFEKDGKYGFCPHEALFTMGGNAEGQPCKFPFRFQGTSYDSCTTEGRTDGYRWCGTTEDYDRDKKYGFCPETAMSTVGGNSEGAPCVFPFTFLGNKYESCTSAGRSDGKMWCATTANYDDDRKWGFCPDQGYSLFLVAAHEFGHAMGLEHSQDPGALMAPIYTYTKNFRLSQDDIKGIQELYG

CC(C)C[C@@H](NC(=O)[C@@H](Cc1ccccc1)NC(=O)CNC(=O)CNC(=O)[C@H](N)Cc1ccc(O)cc1)C(=O)N[C@H](CCCNC(=N)N)C(=O)N[C@H](CCCNC(=N)N)C(N)=O [SEQ ID NO. 1, tyr-Gly-Gly-phe-leu-arg-arg-NH2]
viability at 5 µM [1]: 97.9% | viability at 50 µM [1]: 101% | viability at 100 µM [1]: 95.9% | viability at 5 µM [2]: 95.8% | viability at 50 µM [2]: 99.1% | viability at 100 µM [2]: 93.4% | highest concentration which did not significantly affect cell viability [3]: 0.5 mM | activity at 1 µM (recombinant MMP-2; 1 μM, lower % = higher inhibitory activity, read-out: % inhibition (MMP-2 inhibitor screening)): 66.4% | activity at 10 µM (recombinant MMP-2; 10 μM, lower % = higher inhibitory activity, read-out: % inhibition (MMP-2 inhibitor screening)): 61.8% | activity at 100 µM (recombinant MMP-2; 100 μM, lower % = higher inhibitory activity, read-out: % inhibition (MMP-2 inhibitor screening)): 50.4% | ability to inhibit MMP-2 activity (in words) (recombinant MMP-2; 1 to 100 μM): dose dependent ability to inhibit MMP-2 activity
